From patent US7202260B2, “VEGFR-2 and VEGFR-3 inhibitory anthranilamide pyridones” (Schering AG, priority 2003, dated 2007)
Like-named read-outs stand apart in the source and are kept apart here.

Tests used:
VEGFR II (KDR) = VEGFR II (KDR) (Homo sapiens, UniProt P35968); test: Inhibition of the KDR kinase activity (33P-ATP, poly-(Glu4Tyr) filter assay); format: biochemical
Description: • Stock Solutions • Stock solution A: 3 mmol of ATP in water, pH 7.0 (−70° C.) • Stock solution B: g-33P-ATP 1 mCi/100 μl • Stock solution C: poly-(Glu4Tyr) 10 mg/ml in water • Solution for Dilutions • Substrate solvent: 10 mmol of DTT, 10 mmol of manganese chloride, 100 mmol of magnesium chloride • Enzyme solution: 120 mmol of tris/HCl, pH 7.5, 10 μM of sodium vanadium oxide Sample Application 1 Inhibition of the KDR- and FLT-1 Kinase Activity in the Presence of the Compounds According to the Invention
In a microtiter plate (without protein binding) that tapers to a point, 10 μl of substrate mix (10 μl of volume of ATP stock solution A+25 μCi of g-33P-ATP (about 2.5 μl of stock solution B)+30 μl of poly-(Glu4Tyr) stock solution C+1.21 ml of substrate solvent), 10 μl of inhibitor solution (substances corresponding to the dilutions, 3% DMSO in substrate solvent as a control) and 10 μl of enzyme solution (11.25 μg of enzyme stock solution (KDR, FLT-1 or FLT-4 kinase) are added at 4° C. in 1.25 ml of enzyme solution (dilute). It is thoroughly mixed and incubated for 10 minutes at room temperature. Then, 10 μl of stop solution (250 mmol of EDTA, pH 7.0) is added, mixed, and 10 μl of the solution is transferred to a P 81 phosphocellulose filter. […] The filter paper is dried, coated with Meltilex, and measured in a microbeta counter. […]

[1] = target: T1, Cytochrome P450 isoenzyme 3A4 (Homo sapiens, UniProt P08684); test: Cytochrome P450 inhibition (Crespi et al.); format: in vitro ADME; conditions: baculovirus/insect cell-expressed human isoenzyme 3A4
T1 construct: host or cells: baculovirus/insect cells
T1 sequence (P08684 whole entry): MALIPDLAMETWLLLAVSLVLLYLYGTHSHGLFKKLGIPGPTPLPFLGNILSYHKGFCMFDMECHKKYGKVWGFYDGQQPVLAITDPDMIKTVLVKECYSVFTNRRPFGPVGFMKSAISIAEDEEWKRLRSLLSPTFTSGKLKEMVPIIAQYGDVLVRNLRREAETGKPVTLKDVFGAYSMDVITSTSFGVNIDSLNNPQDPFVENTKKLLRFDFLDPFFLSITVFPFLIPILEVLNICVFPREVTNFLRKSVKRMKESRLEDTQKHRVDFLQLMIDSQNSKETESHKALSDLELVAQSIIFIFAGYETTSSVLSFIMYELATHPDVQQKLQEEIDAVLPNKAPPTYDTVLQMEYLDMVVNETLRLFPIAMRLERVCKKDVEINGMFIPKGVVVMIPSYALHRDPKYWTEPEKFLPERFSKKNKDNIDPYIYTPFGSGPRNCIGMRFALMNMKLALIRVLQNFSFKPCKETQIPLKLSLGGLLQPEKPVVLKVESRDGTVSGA
Description: Cytochrome P450 Inhibition
The Cytochrome P450 inhibition was performed according to the publication of Crespi et al. (Anal. Biochem., 248, 188–190 (1997)) with use of the baculovirus/insect cell-expressed and human Cytochrome P450 isoenzyme (3A4).

Sequence of VEGFR II (KDR) (P35968 20-1356, species assumed): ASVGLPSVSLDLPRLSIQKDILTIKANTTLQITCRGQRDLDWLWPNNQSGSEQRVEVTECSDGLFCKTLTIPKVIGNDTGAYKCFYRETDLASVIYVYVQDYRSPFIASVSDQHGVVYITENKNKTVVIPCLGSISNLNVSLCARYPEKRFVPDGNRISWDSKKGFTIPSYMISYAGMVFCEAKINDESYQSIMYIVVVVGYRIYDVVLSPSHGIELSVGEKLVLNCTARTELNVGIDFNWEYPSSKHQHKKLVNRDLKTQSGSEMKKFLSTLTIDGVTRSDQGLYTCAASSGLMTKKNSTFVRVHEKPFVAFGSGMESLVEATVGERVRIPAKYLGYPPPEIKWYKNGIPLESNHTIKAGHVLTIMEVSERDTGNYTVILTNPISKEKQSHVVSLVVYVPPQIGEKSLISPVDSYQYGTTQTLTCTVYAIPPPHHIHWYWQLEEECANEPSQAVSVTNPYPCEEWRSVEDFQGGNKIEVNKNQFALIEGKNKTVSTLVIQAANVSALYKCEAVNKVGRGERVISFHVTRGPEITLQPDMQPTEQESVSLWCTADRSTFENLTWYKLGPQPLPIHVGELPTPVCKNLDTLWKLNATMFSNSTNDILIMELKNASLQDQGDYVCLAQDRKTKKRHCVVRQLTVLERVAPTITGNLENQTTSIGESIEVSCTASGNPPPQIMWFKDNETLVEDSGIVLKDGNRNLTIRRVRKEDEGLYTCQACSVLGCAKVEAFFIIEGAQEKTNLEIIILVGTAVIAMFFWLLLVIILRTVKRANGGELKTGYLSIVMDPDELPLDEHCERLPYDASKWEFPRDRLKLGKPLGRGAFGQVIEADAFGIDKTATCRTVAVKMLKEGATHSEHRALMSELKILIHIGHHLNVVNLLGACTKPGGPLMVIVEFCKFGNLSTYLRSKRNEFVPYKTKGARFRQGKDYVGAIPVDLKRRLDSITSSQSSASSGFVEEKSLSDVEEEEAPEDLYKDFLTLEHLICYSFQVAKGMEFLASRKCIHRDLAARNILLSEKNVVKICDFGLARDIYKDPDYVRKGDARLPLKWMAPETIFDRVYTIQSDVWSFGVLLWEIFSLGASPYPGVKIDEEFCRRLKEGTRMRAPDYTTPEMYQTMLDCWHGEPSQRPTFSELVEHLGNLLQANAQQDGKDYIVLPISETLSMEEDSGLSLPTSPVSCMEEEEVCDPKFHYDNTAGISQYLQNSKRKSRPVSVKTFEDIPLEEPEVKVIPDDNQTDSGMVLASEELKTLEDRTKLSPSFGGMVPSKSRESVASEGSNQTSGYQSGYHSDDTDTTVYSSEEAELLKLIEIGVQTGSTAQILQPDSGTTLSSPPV

Row | IC50 (VEGFR II (KDR)) [nM] | IC50 ([1]; read-out: Inhibition of Cyp 450 3A4 (IC50)) [nM] | IC50 ([1]; heading: Inhibition of Cyp 450 3A4) [nM] | Structure (SMILES)
1 | 56 | 5600 | – | O=C(Nc1ccc(OC(F)(F)F)cc1)c1ccccc1NCc1ccc(=O)[nH]c1 [Example 1.0, 2-[(6-Oxo-1,6-dihydro-pyridin-3-ylmethyl)-amino]-N-(4-trifluoromethoxy-phenyl)-benzamide]
2 | 59 | – | 11000 | O=C(Nc1ccc(OCC(F)(F)F)cc1)c1ccccc1NCc1ccc(=O)[nH]c1 [Example 1.5]
